Assay results taken from patent US20200347043A1, “MODULATORS OF THE INTEGRATED STRESS PATHWAY” (Calico Life Sciences LLC, priority 2019, published 2020).

system: HEK293T cells carrying the ATF4 luciferase reporter; assay: ATF4-Luc assay (in vitro model of VWMD); assay type: cell-based, human; conditions: Homo sapiens, HEK-293T, 1 μg/mL tunicamycin, 7 hours, One Glo luminescence
How it was run: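 Stable HEK293T line expressing firefly luciferase behind the human ATF4 5′-UTR, treated with 1 μg/mL tunicamycin plus compound for 7 hours. Luminescence read with One Glo; EC50 determined.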

Structure (SMILES) | EC50
O=C(NC12CC(c3ncc(-c4ccc(Cl)c(F)c4)o3)(C1)C2)[C@H]1C[C@@H](O)c2cc(Cl)ccc2O1 [Compound 270, (2R,4R)-6-chloro-N-{3-[5-(4-chloro-3-fluorophenyl)-1,3-oxazol-2-yl]bicyclo[1.1.1]pentan-1-yl}-4-hydroxy-3,4-dihydro-2H-1-benzopyran-2-carboxamide] | < 10 nM
O=C(NC12CC(c3ncc(-c4ccc(Cl)c(F)c4)o3)(C1)C2)[C@@H]1C[C@@H](O)c2cc(Cl)ccc2O1 [Compound 271, (2S,4R)-6-chloro-N-{3-[5-(4-chloro-3-fluorophenyl)-1,3-oxazol-2-yl]bicyclo[1.1.1]pentan-1-yl}-4-hydroxy-3,4-dihydro-2H-1-benzopyran-2-carboxamide] | 10 to 50 nM
O=C(NC12CC(c3csc(-c4ccc(Cl)cc4)n3)(C1)C2)[C@H]1C[C@@H](O)c2cc(Cl)ccc2O1 [Compound 272, (2R,4R)-6-chloro-N-{3-[2-(4-chlorophenyl)-1,3-thiazol-4-yl]bicyclo[1.1.1]pentan-1-yl}-4-hydroxy-3,4-dihydro-2H-1-benzopyran-2-carboxamide] | 10 to 50 nM
O=C(NC12CC(c3csc(-c4ccc(Cl)cc4)n3)(C1)C2)[C@@H]1C[C@@H](O)c2cc(Cl)ccc2O1 [Compound 273, (2S,4R)-6-chloro-N-{3-[2-(4-chlorophenyl)-1,3-thiazol-4-yl]bicyclo[11.11]pentan-1-yl}-4-hydroxy-3,4-dihydro-2H-1-benzopyran-2-carboxamide] | 50 to 250 nM
Cc1nc(C23CC(NC(=O)[C@H]4C[C@@H](O)c5cc(Cl)ccc5O4)(C2)C3)oc1-c1ccc(Cl)cc1 [Compound 274, (2R,4R)-6-chloro-N-{3-[5-(4-chlorophenyl)-4-methyl-1,3-oxazol-2-yl]bicyclo[1.1.1]pentan-1-yl}-4-hydroxy-3,4-dihydro-2H-1-benzopyran-2-carboxamide] | 10 to 50 nM
Cc1nc(C23CC(NC(=O)[C@@H]4C[C@@H](O)c5cc(Cl)ccc5O4)(C2)C3)oc1-c1ccc(Cl)cc1 [Compound 275, (2S,4R)-6-chloro-N-{3-[5-(4-chlorophenyl)-4-methyl-1,3-oxazol-2-yl]bicyclo[1.1.1]pentan-1-yl}-4-hydroxy-3,4-dihydro-2H-1-benzopyran-2-carboxamide] | 50 to 250 nM
O=C(CO[C@H]1C[C@@H](OC(F)(F)F)C1)NC12CCC(NC(=O)[C@@H]3C[C@H](O)c4cc(Cl)ccc4O3)(CC1)C[C@@H]2O [Compound 276, (2S,4S)-6-chloro-4-hydroxy-N-[(3S)-3-hydroxy-4-(2-{[cis-3-(trifluoromethoxy)cyclobutyl]oxy}acetamido)bicyclo[2.2.2]octan-1-yl]-3,4-dihydro-2H-1-benzopyran-2-carboxamide] | < 10 nM
O=C(NC12CC(N3CC(c4ccc(Cl)cc4)OC3=O)(C1)C2)[C@H]1C[C@@H](O)c2cc(Cl)ccc2O1 (stereo partly drawn) [Compound 277, (2R,4R)-6-chloro-N-{3-[5-(4-chlorophenyl)-2-oxo-1,3-oxazolidin-3-yl]bicyclo[1.1.1]pentan-1-yl}-4-hydroxy-3,4-dihydro-2H-1-benzopyran-2-carboxamide] | 50 to 250 nM
O=C(NC12CC(N3CC(c4ccc(Cl)cc4)OC3=O)(C1)C2)[C@@H]1C[C@@H](O)c2cc(Cl)ccc2O1 (stereo partly drawn) [Compound 278, (2S,4R)-6-chloro-N-{3-[5-(4-chlorophenyl)-2-oxo-1,3-oxazolidin-3-yl]bicyclo[1.1.1]pentan-1-yl}-4-hydroxy-3,4-dihydro-2H-1-benzopyran-2-carboxamide] | 500 to 2000 nM
O=C(NC12CC(c3csc([C@H]4C[C@@H](OC(F)(F)F)C4)n3)(C1)C2)[C@H]1C[C@@H](O)c2cc(Cl)ccc2O1 [Compound 280, (2R,4R)-6-chloro-4-hydroxy-N-(3-{2-[cis-3-(trifluoromethoxy)cyclobutyl]-1,3-thiazol-4-yl}bicyclo[1.1.1]pentan-1-yl)-3,4-dihydro-2H-1-benzopyran-2-carboxamide] | 50 to 250 nM
O=C(NC12CC(n3cnc(-c4ccc(Cl)cc4)c3)(C1)C2)[C@H]1C[C@@H](O)c2cc(Cl)ccc2O1 [Compound 281, (2R,4R)-6-chloro-N-{3-[4-(4-chlorophenyl)-1H-imidazol-1-yl]bicyclo[1.1.1]pentan-1-yl}-4-hydroxy-3,4-dihydro-2H-1-benzopyran-2-carboxamide] | < 10 nM
O=C(NC12CC(n3cnc(-c4ccc(Cl)c(F)c4)c3)(C1)C2)[C@H]1C[C@@H](O)c2cc(Cl)ccc2O1 [Compound 282, (2R,4R)-6-chloro-N-{3-[4-(4-chloro-3-fluorophenyl)-1H-imidazol-1-yl]bicyclo[1.1.1]pentan-1-yl}-4-hydroxy-3,4-dihydro-2H-1-benzopyran-2-carboxamide] | < 10 nM
O=C(NC12CC(c3cc([C@H]4C[C@@H](OC(F)(F)F)C4)on3)(C1)C2)[C@@H]1C[C@@H](O)c2cc(Cl)ccc2O1 [Compound 283, (2S,4R)-6-chloro-4-hydroxy-N-(3-{5-[cis-3-(trifluoromethoxy)cyclobutyl]-1,2-oxazol-3-yl}bicyclo[1.1.1]pentan-1-yl)-3,4-dihydro-2H-1-benzopyran-2-carboxamide] | 50 to 250 nM
O=C(NC12CC(c3cc([C@H]4C[C@H](OC(F)(F)F)C4)no3)(C1)C2)[C@H]1C[C@@H](O)c2cc(Cl)ccc2O1 [Compound 284, (2R,4R)-6-chloro-4-hydroxy-N-(3-{3-[trans-3-(trifluoromethoxy)cyclobutyl]-1,2-oxazol-5-yl}bicyclo[1.1.1]pentan-1-yl)-3,4-dihydro-2H-1-benzopyran-2-carboxamide] | 50 to 250 nM
O=C(NC12CC(NC(=O)[C@H]3C[C@@H](O)c4cc(Cl)ccc4O3)(C1)C2)c1cnc(-c2ccccc2)o1 [Compound 285, N-(3-{[(2R,4R)-6-chloro-4-hydroxy-3,4-dihydro-2H-1-benzopyran-2-carbonyl]amino}bicyclo[11.1]pentan-1-yl)-2-phenyl-1,3-oxazole-5-carboxamide] | < 10 nM
N#C[C@H]1C[C@@H](Oc2nc(C34CC(NC(=O)[C@H]5C[C@@H](O)c6cc(Cl)ccc6O5)(C3)C4)cs2)C1 [Compound 286, (2R,4R)-6-chloro-N-[3-(2-{[cis-3-cyanocyclobutyl]oxy}-1,3-thiazol-4-yl)bicyclo[1.1.1]pentan-1-yl]-4-hydroxy-3,4-dihydro-2H-1-benzopyran-2-carboxamide] | 500 to 2000 nM
O=C(NC12CC(n3cnc([C@H]4C[C@@H](OC(F)(F)F)C4)c3)(C1)C2)[C@H]1C[C@@H](O)c2cc(Cl)ccc2O1 [Compound 287, (2R,4R)-6-chloro-4-hydroxy-N-(3-{4-[cis-3-(trifluoromethoxy)cyclobutyl]-1H-imidazol-1-yl}bicyclo[1.1.1]pentan-1-yl)-3,4-dihydro-2H-1-benzopyran-2-carboxamide] | < 10 nM
O=C(NC12CC(c3ncc([C@H]4C[C@@H](OC(F)(F)F)C4)o3)(C1)C2)[C@H]1C[C@@H](O)c2cc(Cl)ccc2O1 [Compound 288, (2R,4R)-6-chloro-4-hydroxy-N-(3-{5-[cis-3-(trifluoromethoxy)cyclobutyl]-1,3-oxazol-2-yl}bicyclo[1.1.1]pentan-1-yl)-3,4-dihydro-2H-1-benzopyran-2-carboxamide] | 10 to 50 nM
O=C(NC12CC(c3ncc([C@H]4C[C@@H](OC(F)(F)F)C4)[nH]3)(C1)C2)[C@H]1C[C@@H](O)c2cc(Cl)ccc2O1 [Compound 289, (2R,4R)-6-chloro-4-hydroxy-N-(3-{5-[cis-3-(trifluoromethoxy)cyclobutyl]-1H-imidazol-2-yl}bicyclo[1.1.1]pentan-1-yl)-3,4-dihydro-2H-1-benzopyran-2-carboxamide] | 10 to 50 nM
O=C(NC12CC(n3cc(C4CCC4)cn3)(C1)C2)[C@H]1C[C@@H](O)c2cc(Cl)ccc2O1 [Compound 290, (2R,4R)-6-chloro-N-[3-(4-cyclobutyl-1H-pyrazol-1-yl)bicyclo[1.1.1]pentan-1-yl]-4-hydroxy-3,4-dihydro-2H-1-benzopyran-2-carboxamide] | 50 to 250 nM
O=C(NC12CC(n3cc(C4CCC4)cn3)(C1)C2)[C@@H]1C[C@@H](O)c2cc(Cl)ccc2O1 [Compound 291, (2S,4R)-6-chloro-N-[3-(4-cyclobutyl-1H-pyrazol-1-yl)bicyclo[1.1.1]pentan-1-yl]-4-hydroxy-3,4-dihydro-2H-1-benzopyran-2-carboxamide] | 500 to 2000 nM
O=C(N[C@@H]1CC[C@@H](c2ncc([C@H]3C[C@@H](OC(F)(F)F)C3)o2)OC1)[C@H]1C[C@@H](O)c2cc(Cl)ccc2O1 [Compound 292, (2R,4R)-6-chloro-4-hydroxy-N-[(3R,6S)-6-{5-[3-(trifluoromethoxy)cyclobutyl]-1,3-oxazol-2-yl}oxan-3-yl]-3,4-dihydro-2H-1-benzopyran-2-carboxamide] | < 10 nM
O=C(NC12CC(c3cn([C@H]4C[C@@H](OC(F)(F)F)C4)cn3)(C1)C2)[C@H]1C[C@@H](O)c2cc(Cl)ccc2O1 [Compound 294, (2R,4R)-6-chloro-4-hydroxy-N-(3-{1-[cis-3-(trifluoromethoxy)cyclobutyl]-1H-imidazol-4-yl}bicyclo[1.1.1]pentan-1-yl)-3,4-dihydro-2H-1-benzopyran-2-carboxamide] | 10 to 50 nM
O=C(CO[C@H]1C[C@@H](OC(F)(F)F)C1)NC12CC(NC(=O)[C@@H]3C[C@H](O)c4cc(Cl)ccc4O3)(C1)C2 [Compound 295, (2S,4S)-6-chloro-4-hydroxy-N-[3-(2-{[cis-3-(trifluoromethoxy)cyclobutyl]oxy}acetamido)bicyclo[1.1.1]pentan-1-yl]-3,4-dihydro-2H-1-benzopyran-2-carboxamide] | 10 to 50 nM
O=C(NC12CCC(c3ncc([C@H]4C[C@@H](OC(F)(F)F)C4)o3)(CC1)CC2)[C@H]1C[C@@H](O)c2cc(Cl)ccc2O1 [Compound 297, (2R,4R)-6-chloro-4-hydroxy-N-(4-{5-[cis-3-(trifluoromethoxy)cyclobutyl]-1,3-oxazol-2-yl}bicyclo[2.2.2]octan-1-yl)-3,4-dihydro-2H-1-benzopyran-2-carboxamide] | 10 to 50 nM
